Measurements from ChEMBL document CHEMBL1157483, “Discovery of potent, orally active benzimidazole glucagon receptor antagonists” (Bioorg Med Chem Lett, 2008).
Calls of active or inactive are those of the source. No cut-off for these calls is given here.

Experiments:
Glucagon receptor [1] = target: T1, Glucagon receptor (Homo sapiens, UniProt P47871); assay: Displacement of [125I]glucagon from human GCGR expressed in CHO cells; type: cell-based
Glucagon receptor [2] = target: T1, Glucagon receptor; assay: Antagonist activity against human GCGR expressed in CHO cells assessed as glucagon-induced cAMP accumulation; type: functional, cell-based
[3] = target: T2, Gastric inhibitory polypeptide receptor (Homo sapiens, UniProt P48546); assay: Binding affinity against human GIP
T2 sequence (P48546 whole entry): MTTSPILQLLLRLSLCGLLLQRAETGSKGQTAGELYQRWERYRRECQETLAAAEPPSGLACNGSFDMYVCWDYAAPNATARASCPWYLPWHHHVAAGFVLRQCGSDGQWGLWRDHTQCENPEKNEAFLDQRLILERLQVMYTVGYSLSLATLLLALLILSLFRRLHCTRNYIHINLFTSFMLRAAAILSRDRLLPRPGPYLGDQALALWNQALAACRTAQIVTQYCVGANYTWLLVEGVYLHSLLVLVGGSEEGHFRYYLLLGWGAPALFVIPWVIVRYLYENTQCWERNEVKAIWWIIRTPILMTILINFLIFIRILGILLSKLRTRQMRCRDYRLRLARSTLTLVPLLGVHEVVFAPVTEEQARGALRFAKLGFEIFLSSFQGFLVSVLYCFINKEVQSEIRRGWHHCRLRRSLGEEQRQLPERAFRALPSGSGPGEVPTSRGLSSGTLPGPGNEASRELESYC

Homo sapiens [4] = organism: Homo sapiens; assay: Selectivity for human glucagon receptor over human GIP
Homo sapiens [5] = organism: Homo sapiens; assay: Selectivity for human glucagon receptor over human GLP1
[6] = Clearance in mouse at 1 mg/kg, iv and 2 mg/kg, po; type: ADME, organism-based; conditions: in vivo
[7] = Volume of distribution at steady state in mouse at 1 mg/kg, iv and 2 mg/kg, po; type: ADME, organism-based; conditions: in vivo, read-out: Vdss
[8] = Half life in mouse at 1 mg/kg, iv and 2 mg/kg, po; type: ADME, organism-based; conditions: in vivo
[9] = Oral bioavailability in mouse at 2 mg/kg; type: ADME, organism-based; conditions: in vivo
[10] = Clearance in rat at 1 mg/kg, iv and 2 mg/kg, po; type: ADME, organism-based; conditions: in vivo
[11] = Volume of distribution at steady state in rat at 1 mg/kg, iv and 2 mg/kg, po; type: ADME, organism-based; conditions: in vivo, read-out: Vdss
[12] = Half life in rat at 1 mg/kg, iv and 2 mg/kg, po; type: ADME, organism-based; conditions: in vivo
[13] = Oral bioavailability in rat at 2 mg/kg; type: ADME, organism-based; conditions: in vivo
[14] = target: Glucagon-like peptide 1 receptor, Homo sapiens (UniProt P43220); assay: Binding affinity against human GLP1
[15] = target: Voltage-gated inwardly rectifying potassium channel KCNH2 (Homo sapiens, UniProt Q12809); assay: Inhibition of hERG potassium channel; type: toxicity
Cytochrome P450 3A4 = Cytochrome P450 3A4 (Homo sapiens, UniProt P08684); assay: Inhibition of CYP3A4; type: ADME
Cytochrome P450 2C9 = Cytochrome P450 2C9 (Homo sapiens, UniProt P11712); assay: Inhibition of CYP2C9; type: ADME
Cytochrome P450 2D6 = Cytochrome P450 2D6 (Homo sapiens, UniProt P10635); assay: Inhibition of CYP2D6; type: ADME
Mus musculus [16] = assay: Inhibition of glucagon-dependent glucose excursion in transgenic mouse expressing human glucagon receptor at 3 to 30 mg/kg, po; type: functional, organism-based
[17] = Clearance in dog at 0.25 mg/kg, iv and 1 mg/kg, po; type: ADME, organism-based, Canis lupus familiaris; conditions: in vivo
[18] = Volume of distribution at steady state in dog at 0.25 mg/kg, iv and 1 mg/kg, po; type: ADME, organism-based, Canis lupus familiaris; conditions: in vivo, read-out: Vdss
[19] = Half life in dog at 0.25 mg/kg, iv and 1 mg/kg, po; type: ADME, organism-based, Canis lupus familiaris; conditions: in vivo
[20] = Oral bioavailability in dog at 1 mg/kg; type: ADME, organism-based, Canis lupus familiaris; conditions: in vivo
[21] = Clearance in rhesus monkey at 0.5 mg/kg, iv and 2 mg/kg, po; type: ADME, organism-based, Macaca mulatta; conditions: in vivo
[22] = Volume of distribution at steady state in rhesus monkey at 0.5 mg/kg, iv and 2 mg/kg, po; type: ADME, organism-based, Macaca mulatta; conditions: in vivo, read-out: Vdss
[23] = Half life in rhesus monkey at 0.5 mg/kg, iv and 2 mg/kg, po; type: ADME, organism-based, Macaca mulatta; conditions: in vivo
[24] = Oral bioavailability in rhesus monkey at 2 mg/kg; type: ADME, organism-based, Macaca mulatta; conditions: in vivo
[25] = Antagonist activity against rhesus monkey glucagon receptor assessed as cAMP accumulation; type: functional, Macaca mulatta
Rhesus monkey [26] = assay: Inhibition of glucagon-dependent glucose excursion in rhesus monkey at 10 mg/kg, po; type: functional, organism-based; design: dose 10 mg/kg; conditions: Macaca mulatta
Mus musculus [27] = assay: Reduction of glucose level in po dosed fat diet-induced diabetic mouse transgenic model expressing human glucagon receptor administered for 10 days; type: functional, organism-based
Rhesus monkey [28] = assay: Inhibition of glucagon-dependent glucose excursion in rhesus monkey at 3 mg/kg, po; type: functional, organism-based; design: dose 3 mg/kg; conditions: Macaca mulatta

Sequence of Glucagon-like peptide 1 receptor, Homo sapiens (P43220 whole entry, looked up): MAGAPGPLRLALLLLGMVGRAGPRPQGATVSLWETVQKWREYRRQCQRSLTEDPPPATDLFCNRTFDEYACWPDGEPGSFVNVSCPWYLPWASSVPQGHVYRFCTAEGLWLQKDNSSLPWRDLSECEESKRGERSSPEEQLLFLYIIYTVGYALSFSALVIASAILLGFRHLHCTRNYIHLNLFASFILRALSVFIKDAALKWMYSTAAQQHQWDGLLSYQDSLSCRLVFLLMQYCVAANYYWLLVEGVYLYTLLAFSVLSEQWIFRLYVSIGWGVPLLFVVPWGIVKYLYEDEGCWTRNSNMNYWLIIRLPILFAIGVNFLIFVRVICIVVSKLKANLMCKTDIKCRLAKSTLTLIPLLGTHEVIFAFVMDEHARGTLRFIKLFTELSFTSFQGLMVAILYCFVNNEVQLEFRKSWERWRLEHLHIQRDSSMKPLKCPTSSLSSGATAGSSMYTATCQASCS
T1 sequence (P47871 whole entry): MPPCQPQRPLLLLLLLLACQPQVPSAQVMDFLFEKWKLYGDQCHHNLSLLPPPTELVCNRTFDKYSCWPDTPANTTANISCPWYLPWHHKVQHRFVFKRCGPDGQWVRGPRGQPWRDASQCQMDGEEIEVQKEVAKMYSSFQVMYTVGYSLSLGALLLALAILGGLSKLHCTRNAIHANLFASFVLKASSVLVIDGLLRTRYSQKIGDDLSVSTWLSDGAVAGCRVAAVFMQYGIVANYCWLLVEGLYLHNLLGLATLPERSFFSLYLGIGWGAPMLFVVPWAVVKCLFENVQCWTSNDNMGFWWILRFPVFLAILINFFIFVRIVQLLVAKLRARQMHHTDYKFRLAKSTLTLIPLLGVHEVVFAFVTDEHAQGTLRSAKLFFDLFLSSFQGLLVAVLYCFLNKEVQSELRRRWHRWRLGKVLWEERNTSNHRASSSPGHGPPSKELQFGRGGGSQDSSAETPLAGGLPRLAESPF
Sequence of Cytochrome P450 3A4 (P08684 whole entry): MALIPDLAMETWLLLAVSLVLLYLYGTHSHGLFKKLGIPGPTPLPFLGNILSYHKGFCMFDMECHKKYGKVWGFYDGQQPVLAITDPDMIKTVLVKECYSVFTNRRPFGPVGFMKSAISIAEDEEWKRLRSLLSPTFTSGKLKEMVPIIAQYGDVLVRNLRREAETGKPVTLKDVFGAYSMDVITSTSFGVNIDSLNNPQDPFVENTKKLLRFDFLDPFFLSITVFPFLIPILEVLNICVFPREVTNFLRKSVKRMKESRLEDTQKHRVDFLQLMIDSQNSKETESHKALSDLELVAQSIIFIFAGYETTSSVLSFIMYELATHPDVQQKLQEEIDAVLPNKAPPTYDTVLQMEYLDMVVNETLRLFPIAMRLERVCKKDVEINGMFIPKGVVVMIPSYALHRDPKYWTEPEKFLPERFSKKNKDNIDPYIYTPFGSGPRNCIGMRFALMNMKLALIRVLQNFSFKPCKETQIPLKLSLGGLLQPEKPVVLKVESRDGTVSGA
Sequence of Cytochrome P450 2D6 (P10635 whole entry): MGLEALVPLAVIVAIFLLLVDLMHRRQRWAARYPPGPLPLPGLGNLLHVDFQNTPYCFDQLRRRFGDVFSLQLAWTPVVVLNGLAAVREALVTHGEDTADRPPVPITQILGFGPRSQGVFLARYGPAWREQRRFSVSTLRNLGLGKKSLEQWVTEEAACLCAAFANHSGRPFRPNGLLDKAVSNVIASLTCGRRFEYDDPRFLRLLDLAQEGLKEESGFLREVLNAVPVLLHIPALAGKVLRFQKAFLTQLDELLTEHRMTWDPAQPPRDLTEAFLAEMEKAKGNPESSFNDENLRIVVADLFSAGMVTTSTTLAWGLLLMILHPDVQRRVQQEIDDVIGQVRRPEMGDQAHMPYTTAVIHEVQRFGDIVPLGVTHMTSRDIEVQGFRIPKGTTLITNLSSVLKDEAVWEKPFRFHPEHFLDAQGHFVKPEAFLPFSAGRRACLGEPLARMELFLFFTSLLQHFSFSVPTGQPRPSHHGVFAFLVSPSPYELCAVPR
Sequence of Voltage-gated inwardly rectifying potassium channel KCNH2 (Q12809 whole entry): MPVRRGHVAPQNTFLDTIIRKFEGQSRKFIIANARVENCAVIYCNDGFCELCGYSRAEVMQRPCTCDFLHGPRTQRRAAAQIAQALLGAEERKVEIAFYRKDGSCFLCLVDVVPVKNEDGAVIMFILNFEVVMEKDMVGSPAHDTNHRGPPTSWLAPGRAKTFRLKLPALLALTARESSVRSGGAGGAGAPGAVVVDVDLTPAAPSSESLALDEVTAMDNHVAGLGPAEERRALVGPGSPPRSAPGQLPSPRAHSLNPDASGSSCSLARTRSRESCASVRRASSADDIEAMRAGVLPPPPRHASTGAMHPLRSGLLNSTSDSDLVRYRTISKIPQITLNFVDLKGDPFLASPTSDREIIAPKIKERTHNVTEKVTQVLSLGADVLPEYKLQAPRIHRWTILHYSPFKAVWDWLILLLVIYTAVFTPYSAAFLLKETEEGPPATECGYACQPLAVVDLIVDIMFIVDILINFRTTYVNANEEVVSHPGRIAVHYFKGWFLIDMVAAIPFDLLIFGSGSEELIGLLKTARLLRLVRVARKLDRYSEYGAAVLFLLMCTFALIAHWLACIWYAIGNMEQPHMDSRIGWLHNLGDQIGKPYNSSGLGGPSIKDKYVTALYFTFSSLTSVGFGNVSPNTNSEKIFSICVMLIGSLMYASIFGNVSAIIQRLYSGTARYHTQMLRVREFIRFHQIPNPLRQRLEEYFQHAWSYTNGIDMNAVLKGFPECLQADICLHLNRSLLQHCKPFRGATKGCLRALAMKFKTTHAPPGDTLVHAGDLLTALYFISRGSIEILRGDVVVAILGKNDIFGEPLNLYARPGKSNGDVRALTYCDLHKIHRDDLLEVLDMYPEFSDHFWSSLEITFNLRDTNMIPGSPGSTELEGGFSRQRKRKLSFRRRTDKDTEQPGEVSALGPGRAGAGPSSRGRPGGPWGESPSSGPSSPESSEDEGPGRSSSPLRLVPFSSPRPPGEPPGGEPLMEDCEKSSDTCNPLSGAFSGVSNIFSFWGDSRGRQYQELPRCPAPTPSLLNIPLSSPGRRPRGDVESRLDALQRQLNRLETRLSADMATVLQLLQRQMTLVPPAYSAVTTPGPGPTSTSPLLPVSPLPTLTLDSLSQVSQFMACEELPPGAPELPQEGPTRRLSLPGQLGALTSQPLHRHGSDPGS
Sequence of Cytochrome P450 2C9 (P11712 whole entry): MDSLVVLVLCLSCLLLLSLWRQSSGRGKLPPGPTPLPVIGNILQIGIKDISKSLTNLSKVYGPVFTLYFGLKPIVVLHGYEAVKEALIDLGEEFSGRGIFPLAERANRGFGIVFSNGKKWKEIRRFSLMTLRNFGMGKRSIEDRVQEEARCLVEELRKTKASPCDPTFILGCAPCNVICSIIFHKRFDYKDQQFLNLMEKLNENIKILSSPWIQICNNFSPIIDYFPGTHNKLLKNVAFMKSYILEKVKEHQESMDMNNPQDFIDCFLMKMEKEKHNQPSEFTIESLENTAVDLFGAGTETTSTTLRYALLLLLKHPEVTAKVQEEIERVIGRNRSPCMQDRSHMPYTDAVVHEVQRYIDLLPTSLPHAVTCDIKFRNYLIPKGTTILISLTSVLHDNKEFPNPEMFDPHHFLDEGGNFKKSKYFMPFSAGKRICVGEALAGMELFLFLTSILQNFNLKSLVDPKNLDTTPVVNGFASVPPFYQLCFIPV

Cn1c(N(Cc2ccc(C(=O)Nc3nnn[nH]3)cc2)[C@H]2CC[C@H](C(C)(C)C)CC2)nc2cc(OC3CCCC3)ccc21
IC50 (Glucagon receptor [1]): 1 nM
IC50 (Glucagon receptor [2]): 9 nM
IC50 [3]: 2000 nM
Selectivity ratio (Homo sapiens [4]): > 50
Selectivity ratio (Homo sapiens [5]): > 50
clearance [6]: 10 mL/min/kg
Vd [7]: 0.5 L/kg
half-life [8]: 3.2 h
bioavailability [9]: 2%
clearance [10]: 13 mL/min/kg
Vd [11]: 0.6 L/kg
half-life [12]: 2.9 h
bioavailability [13]: 5%
IC50 [14]: 5000 nM

Cn1c(N(Cc2ccc(C(=O)Nc3nnn[nH]3)cc2)c2ccc(C(C)(C)C)cc2)nc2ccccc21
IC50 (Glucagon receptor [1]): 31 nM
IC50 (Glucagon receptor [2]): 810 nM

COc1ccc2nc(N(Cc3ccc(C(=O)Nc4nnn[nH]4)cc3)[C@H]3CC[C@H](C(C)(C)C)CC3)n(C)c2c1
IC50 (Glucagon receptor [1]): 4 nM
IC50 (Glucagon receptor [2]): 213 nM
IC50 [3]: > 1000 nM
Selectivity ratio (Homo sapiens [4]): > 50
Selectivity ratio (Homo sapiens [5]): > 50

COc1ccc2c(c1)nc(N(Cc1ccc(C(=O)Nc3nnn[nH]3)cc1)[C@H]1CC[C@H](C(C)(C)C)CC1)n2C
IC50 (Glucagon receptor [1]): 4 nM
IC50 (Glucagon receptor [2]): 38 nM
IC50 [3]: 2500 nM
Selectivity ratio (Homo sapiens [4]): > 50
Selectivity ratio (Homo sapiens [5]): > 50
IC50 [14]: 5900 nM

CCOc1ccc2c(c1)nc(N(Cc1ccc(C(=O)Nc3nnn[nH]3)cc1)[C@H]1CC[C@H](C(C)(C)C)CC1)n2C
IC50 (Glucagon receptor [1]): 2 nM
IC50 (Glucagon receptor [2]): 22 nM
IC50 [3]: 2800 nM
Selectivity ratio (Homo sapiens [4]): > 50
Selectivity ratio (Homo sapiens [5]): > 50
IC50 [14]: 7600 nM

Cc1ccc2[nH]c(N(Cc3ccc(C(=O)Nc4nnn[nH]4)cc3)[C@H]3CC[C@H](C(C)(C)C)CC3)nc2c1
IC50 (Glucagon receptor [1]): 10 nM
IC50 (Glucagon receptor [2]): > 1000 nM

Cc1cc2nc(N(Cc3ccc(C(=O)Nc4nnn[nH]4)cc3)[C@H]3CC[C@H](C(C)(C)C)CC3)n(C)c2cc1C
IC50 (Glucagon receptor [1]): 6 nM
IC50 (Glucagon receptor [2]): 18 nM
IC50 [3]: > 10000 nM
Selectivity ratio (Homo sapiens [4]): > 50
Selectivity ratio (Homo sapiens [5]): > 50

CC(C)(C)[C@H]1CC[C@@]2(CCN(c3ccc(OC(F)(F)F)cc3)C(=O)N2Cc2ccc(C(=O)Nc3nnn[nH]3)cc2)CC1
IC50 (Glucagon receptor [1]): 32 nM

Cc1ccc2[nH]c(N(Cc3ccc(C(=O)Nc4nnn[nH]4)cc3)c3ccc(Oc4ccc(Cl)cc4)c(Cl)c3)nc2c1
IC50 (Glucagon receptor [1]): 13 nM
IC50 (Glucagon receptor [2]): > 1000 nM

CCCOc1ccc2nc(N(Cc3ccc(C(=O)Nc4nnn[nH]4)cc3)[C@H]3CC[C@H](C(C)(C)C)CC3)n(C)c2c1
IC50 (Glucagon receptor [1]): 1 nM
IC50 (Glucagon receptor [2]): 8 nM
IC50 [3]: 4900 nM
Selectivity ratio (Homo sapiens [4]): > 50
Selectivity ratio (Homo sapiens [5]): > 50
IC50 [14]: 5000 nM

Cn1c(N(Cc2ccc(C(=O)Nc3nnn[nH]3)cc2)[C@H]2CC[C@H](C(C)(C)C)CC2)nc2cc(O)ccc21
IC50 (Glucagon receptor [1]): 2 nM
IC50 (Glucagon receptor [2]): > 1000 nM
IC50 [3]: > 1000 nM
Selectivity ratio (Homo sapiens [4]): > 50
Selectivity ratio (Homo sapiens [5]): > 50

CCCn1c(N(Cc2ccc(C(=O)Nc3nnn[nH]3)cc2)[C@H]2CC[C@H](C(C)(C)C)CC2)nc2ccccc21
IC50 (Glucagon receptor [1]): 24 nM

Cn1c(N(Cc2ccc(C(=O)Nc3nnn[nH]3)cc2)[C@H]2CC[C@H](C(C)(C)C)CC2)nc2cc(C(F)(F)F)ccc21
IC50 (Glucagon receptor [1]): 11 nM
IC50 (Glucagon receptor [2]): 62 nM
IC50 [3]: 6000 nM
Selectivity ratio (Homo sapiens [4]): > 50
Selectivity ratio (Homo sapiens [5]): > 50
IC50 [15]: > 10000 nM
IC50 (Cytochrome P450 3A4): > 10000 nM
IC50 (Cytochrome P450 2C9): > 10000 nM
IC50 (Cytochrome P450 2D6): > 10000 nM
Activity (Mus musculus [16]): Active
clearance [6]: 4 mL/min/kg
Vd [7]: 0.33 L/kg
half-life [8]: 1.9 h
bioavailability [9]: 2%
clearance [10]: 12 mL/min/kg
Vd [11]: 0.74 L/kg
half-life [12]: 1.6 h
bioavailability [13]: 5%
clearance [17]: 3.8 mL/min/kg
Vd [18]: 0.5 L/kg
half-life [19]: 2.1 h
bioavailability [20]: 27%
clearance [21]: 16 mL/min/kg
Vd [22]: 0.8 L/kg
half-life [23]: 2.4 h
bioavailability [24]: 23%
IC50 [25]: 111 nM
Activity (Rhesus monkey [26]): Active
Activity (Mus musculus [27]): Dose-dependent effect
Activity (Rhesus monkey [28]): Active
IC50 [14]: 6800 nM
